{"source": "BindingDB's records for doi:10.1016/j.bmc.2006.09.052", "about": "(Kirin Brewery, 2006)", "note": "pIC50: −log10 of the molar value."}
{"experiment": "Inhibition of MCP1-induced cell migration in U937 cells expressing CCR2 by chemotaxis assay"}
{"compound": "Nc1cccc(CN2CCCC(Nc3ccc4[nH]ncc4c3)C2)c1", "note": "(stereo unspecified) [N-[1-(3-aminobenzyl)-3-piperidyl]-N-(1H-5-indazolyl)amine]", "pIC50": 5.52}
{"compound": "c1cc(CN2CCCC(Nc3ccc4[nH]ncc4c3)C2)ccn1", "note": "(stereo unspecified) [N-(1-(pyridin-4-ylmethyl)piperidin-3-yl)-1H-indazol-5-amine]", "pIC50": "< 4.52"}
{"compound": "c1c[nH]c(CN2CCCC(Nc3ccc4[nH]ncc4c3)C2)c1", "note": "(stereo unspecified) [N-[1-(1H-2-pyrrolylmethyl)-3-piperidyl]-N-(1H-5-indazolyl)amine]", "pIC50": 5.00}
{"compound": "COc1ccc(CN2CCCC(Nc3ccc4[nH]ncc4c3)C2)cc1", "note": "(stereo unspecified) [N-(1-(4-methoxybenzyl)piperidin-3-yl)-1H-indazol-5-amine]", "pIC50": 6.00}
{"compound": "O=[N+]([O-])c1ccc(CN2CCCC(Nc3ccc4[nH]ncc4c3)C2)cc1", "note": "(stereo unspecified) [N-(1-(4-nitrobenzyl)piperidin-3-yl)-1H-indazol-5-amine]", "pIC50": 4.72}
{"compound": "c1cncc(CN2CCCC(Nc3ccc4[nH]ncc4c3)C2)c1", "note": "(stereo unspecified) [N-[1-(3-pyridylmethyl)-3-piperidyl]-N-(1H-5-indazolyl)amine]", "pIC50": 4.70}
{"compound": "c1csc(CN2CCCC(Nc3ccc4[nH]ncc4c3)C2)c1", "note": "(stereo unspecified) [N-(1-(thiophen-2-ylmethyl)piperidin-3-yl)-1H-indazol-5-amine]", "pIC50": 5.22}
{"compound": "O=C(Nc1ccc2[nH]ncc2c1)C1CCCN(Cc2ccccc2)C1", "note": "(stereo unspecified) [1-benzyl-N-(1H-indazol-5-yl)piperidine-3-carboxamide]", "pIC50": 6.00}
{"compound": "c1ccc(CN2CCC(Nc3ccc4[nH]ncc4c3)CC2)cc1", "note": "[N-(1-benzylpiperidin-4-yl)-1H-indazol-5-amine]", "pIC50": 4.52}
{"compound": "Clc1ccc(CN2CCCC(Nc3ccc4[nH]ncc4c3)C2)cc1", "note": "(stereo unspecified) [N-(1-(4-chlorobenzyl)piperidin-3-yl)-1H-indazol-5-amine]", "pIC50": 6.00}
{"compound": "c1ccc(CN2CCC(Nc3ccc4[nH]ncc4c3)C2)cc1", "note": "(stereo unspecified) [N-(1-benzylpyrrolidin-3-yl)-1H-indazol-5-amine]", "pIC50": 5.00}
{"compound": "COc1cc(CN2CCCC(Nc3ccc4[nH]ncc4c3)C2)cc(OC)c1", "note": "(stereo unspecified) [N-(1-(3,5-dimethoxybenzyl)piperidin-3-yl)-1H-indazol-5-amine]", "pIC50": "< 4.52"}
{"compound": "Clc1cccc(CN2CCC(Nc3ccc4[nH]ncc4c3)C2)c1", "note": "(stereo unspecified) [N-[1-(3-chlorobenzyl)-3-pyrrolidyl]-N-(1H-5-indazolyl)amine]", "pIC50": 5.30}
{"compound": "O=C(NCc1c(F)cccc1F)Nc1ccc2[nH]ncc2c1", "note": "[N-(2,6-difluorobenzyl)-N0-(1H-5-indazolyl)urea]", "pIC50": "< 4.00"}
{"compound": "Clc1ccccc1CN1CCC(Nc2ccc3[nH]ncc3c2)C1", "note": "(stereo unspecified) [N-[1-(2-chlorobenzyl)-3-pyrrolidyl]-N-(1H-5-indazolyl)amine]", "pIC50": 5.15}
{"compound": "c1ccc(CN2CCC(Oc3ccc4[nH]ncc4c3)CC2)cc1", "note": "[1-benzyl-4-piperidyl-(1H-5-indazolyl)ether]", "pIC50": 5.22}
{"compound": "Fc1ccc(CN2CCCC(Nc3ccc4[nH]ncc4c3)C2)cc1F", "note": "(stereo unspecified) [N-(1-(3,4-difluorobenzyl)piperidin-3-yl)-1H-indazol-5-amine]", "pIC50": 6.00}
{"compound": "Nc1ccccc1CN1CCCC(Nc2ccc3[nH]ncc3c2)C1", "note": "(stereo unspecified) [N-[1-(2-aminobenzyl)-3-piperidyl]-N-(1H-5-indazolyl)amine]", "pIC50": 6.00}
{"compound": "Clc1ccccc1CN1CCCC(Nc2ccc3[nH]ncc3c2)C1", "note": "(stereo unspecified) [N-[1-(2-chlorobenzyl)-3-piperidyl]-N-(1H-5-indazolyl)amine]", "pIC50": 5.10}
{"compound": "Cc1ccc(CN2CCCC(Nc3ccc4[nH]ncc4c3)C2)cc1", "note": "(stereo unspecified) [N-(1-(4-methylbenzyl)piperidin-3-yl)-1H-indazol-5-amine]", "pIC50": 6.00}
{"compound": "Clc1cccc(CN2CCCC(Nc3ccc4[nH]ncc4c3)C2)c1", "note": "(stereo unspecified) [N-[1-(3-chlorobenzyl)-3-piperidyl]-N-(1H-5-indazolyl)amine]", "pIC50": 5.10}
{"compound": "c1ccc(CN2CCCC(Nc3ccc4[nH]ncc4c3)C2)cc1", "note": "(stereo unspecified) [N-(1-benzylpiperidin-3-yl)-1H-indazol-5-amine]", "pIC50": 5.70}
{"compound": "O=[N+]([O-])c1cccc(CN2CCCC(Nc3ccc4[nH]ncc4c3)C2)c1", "note": "(stereo unspecified) [N-[1-(3-nitrobenzyl)-3-piperidyl]-N-(1H-5-indazolyl)amine]", "pIC50": 4.72}
{"compound": "c1ccc(CN2CCCC(Oc3ccc4[nH]ncc4c3)C2)cc1", "note": "(stereo unspecified) [1-benzyl-3-piperidyl-(1H-5-indazolyl)ether]", "pIC50": 6.00}
{"compound": "c1cc(CN2CCCC(Nc3ccc4[nH]ncc4c3)C2)cs1", "note": "(stereo unspecified) [N-(1-(thiophen-3-ylmethyl)piperidin-3-yl)-1H-indazol-5-amine]", "pIC50": 6.00}
{"compound": "Fc1ccc(CN2CCCC(Nc3ccc4[nH]ncc4c3)C2)cc1", "note": "(stereo unspecified) [N-(1-(4-fluorobenzyl)piperidin-3-yl)-1H-indazol-5-amine]", "pIC50": 5.40}
{"compound": "Clc1ccc(CN2CCC(Nc3ccc4[nH]ncc4c3)C2)cc1", "note": "(stereo unspecified) [N-[1-(4-chlorobenzyl)-3-pyrrolidyl]-N-(1H-5-indazolyl)amine]", "pIC50": 6.00}
{"compound": "c1coc(CN2CCCC(Nc3ccc4[nH]ncc4c3)C2)c1", "note": "(stereo unspecified) [N-(1-(furan-2-ylmethyl)piperidin-3-yl)-1H-indazol-5-amine]", "pIC50": 5.30}
{"compound": "O=C(NCc1ccc(Cl)cc1Cl)Nc1ccc2[nH]ncc2c1", "note": "[N-(2,4-dichlorobenzyl)-N0-(1H-5-indazolyl)urea]", "pIC50": "< 4.00"}
{"compound": "Nc1ccc(CN2CCCC(Nc3ccc4[nH]ncc4c3)C2)cc1", "note": "(stereo unspecified) [N-(1-(4-aminobenzyl)piperidin-3-yl)-1H-indazol-5-amine]", "pIC50": 5.70}
{"compound": "O=C(NCc1ccccc1)Nc1ccc2[nH]ncc2c1", "note": "[1-benzyl-3-(1H-indazol-5-yl)urea]", "pIC50": "< 4.00"}
